Experimental data published in patent US20080044805A1, “Biopolymer-Dye Complex and Use as a Bioassay” (STC.UNM, priority 2006, published 2008).

What was measured:
[1] = Water solubility of the cyanine dye; format: physicochemical
Description: For fluorescence of the polymers in solution, J-aggregate fluorescence became prominent for polymers having at least 33 cationic polymer repeat units. The fluorescence of the polymer is subject to very strong “super-quenching” by oppositely charged electron acceptors and energy-transfer quenchers that equals or exceeds that observed for conjugated polyelectrolytes by the same kind of quenchers. […] In exemplary embodiments, a cyanine dye of formula I, below, is used.

[2] = Hyaluronidase activity, scaffold destruction fluorescent assay; format: biochemical; settings: hyaluronic acid substrate; estimated from maximal fluorescence of unreacted mix
Description: Hyaluronidase enzyme (11.3 U of E.C. 3.2.1.35) was mixed with 8 μg of hyaluronic acid in a total volume of 500 μL at 25° C. After 0, 20, 40, 60, 80, 100, 120 and 140 minutes, a portion of the reaction mixture was diluted into 20 μM concentrations of cyanine dye of Formula I dissolved in 20% methanol-80% water mixture dispensed into the wells of a 96 well microplate (Optiplate™-96, Perkin Elmer Life Sciences, Boston, Mass.) to a total volume of 275 μL. Sixty minutes after adding the reaction mixture to the cyanine solution, the fluorescence was measured using a Mithras LB 940 microplate spectrofluorometer (Berthold Instruments, Oak Ridge, Tenn.). The enzymatic reaction volume that was added to the cyanine dye solution represented approximately 364 ng of intact hyaluronic acid that might be present in the complete absence of enzymatic hydrolysis. This amount of hyaluronic was equivalent to the mid-point in the rise of the hyaluronic titration curve in FIG. 23. […] Hyaluronic acid in amounts of 0, 200, 400, 600, 800 and 1000 ng respectively were mixed with 1 U of hyaluronidase in a total volume of 100 μL. […] Based upon maximal fluorescence from reactions in which the enzyme and substrate were mixed but not allowed to react, it was estimated that hyaluronidase activity level reached a plateau between 60 to 80 minutes, representing 50% hydrolysis of the substrate.

Row | Compound | water solubility [1] | hydrolysis of the substrate at plateau [2] [%]
1 | CCN1C(=Cc2sc3ccc(Cl)cc3[n+]2CC)Sc2ccc(Cl)cc21.[I-] [cyanine dye of Formula I] | moderate | 
2 | hyaluronidase |  | 50
